Experimental findings from patent US20250235460A1, “COMBINATION THERAPY USING GLUCOSE-DEPENDENT INSULINOTROPIC POLYPEPTIDE RECEPTOR ANTAGONIST COMPOUNDS AND GLP-1 RECEPTOR AGONIST COMPOUNDS” (Pfizer Inc., priority 2024, published 2025) are described below.

One may read the EC50 as the midpoint of the concentration-response curve. Lower therefore signals a more potent agent. Usually Emax stands for the maximal effect, on the per cent scale that the assay sets.

Test [1] concerns the target human GLP-1R (Homo sapiens, UniProt P43220, G168S). As to the kind of experiment: CHO GLP-1R Clone H6 cAMP HTRF agonist assay (Assay 1, high receptor density). Format: cell-based. The conditions noted are these: for EC50: CHO GLP-1R clone H6, cAMP HTRF, geometric mean; for Emax: CHO GLP-1R clone H6, arithmetic mean, relative to saturating GLP-1 (1 μM), read-out: Assay 1 Emax (%). Put shortly:
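Two significant figures are used throughout. Each EC50 is the geometric mean of its replicates, and each Emax is the arithmetic mean.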
For orientation: In TR-FRET formats the signal depends on donor and acceptor labels being close together.

Test [2] concerns the target human GLP-1R (Homo sapiens, UniProt P43220, L260F). The experiment in a line: CHO GLP-1R Clone C6 cAMP HTRF agonist assay (Assay 2, low receptor density). The test is classed as cell-based. The conditions noted are these: for EC50: CHO GLP-1R clone C6, cAMP HTRF, geometric mean; for Emax: CHO GLP-1R clone C6, arithmetic mean, relative to saturating GLP-1 (1 μM). The source says:
In Table 5 and Table 6, assay data are presented to two (2) significant figures as the geometric mean (EC50s) and arithmetic mean (Emax) based on the number of replicates listed (Number). A blank cell means there was no data for that Example or the Emax was not calculated.

Molecules are shown by their SMILES.

human GLP-1R (Homo sapiens, UniProt P43220, L260F), sequence (P43220 24-463 L260F): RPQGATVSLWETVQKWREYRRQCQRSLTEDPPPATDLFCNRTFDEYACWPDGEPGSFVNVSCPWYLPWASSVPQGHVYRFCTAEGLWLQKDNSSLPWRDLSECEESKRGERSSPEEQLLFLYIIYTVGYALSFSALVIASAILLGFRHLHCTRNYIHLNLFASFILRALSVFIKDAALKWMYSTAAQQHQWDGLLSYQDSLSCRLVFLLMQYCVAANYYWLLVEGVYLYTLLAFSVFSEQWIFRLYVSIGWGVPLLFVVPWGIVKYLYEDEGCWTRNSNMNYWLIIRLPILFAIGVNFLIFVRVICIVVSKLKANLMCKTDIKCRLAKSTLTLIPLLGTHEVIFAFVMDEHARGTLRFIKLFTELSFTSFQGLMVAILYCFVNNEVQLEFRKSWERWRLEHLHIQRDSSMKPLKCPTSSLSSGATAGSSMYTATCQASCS
human GLP-1R (Homo sapiens, UniProt P43220, G168S), sequence (P43220 24-463 G168S): as the sequence (P43220 24-463 L260F) above, with G145S, F237L counted along it

Turning to `CN1CCC(CCn2c(CN3CCC(c4cccc(OCc5ccc(Cl)cc5F)n4)CC3)nc3ccc(C(=O)O)cc32)CC1` [Compound 282B, 2-[(4-{6-[(4-chloro-2-fluorobenzyl)oxy]pyridin-2-yl}piperidin-1-yl)methyl]-1-[2-(1-methylpiperidin-4-yl)ethyl]-1H-benzimidazole-6-carboxylic acid], the EC50 at human GLP-1R [1] was found to be 15 nM; at human GLP-1R [2], 230 nM. Moreover, the Emax worked out at 83% at human GLP-1R [1] and 110% at human GLP-1R [2].
Turning to `O=C(O)c1ccc2nc(CN3CCC(c4cccc(OCc5ccc(Cl)cc5F)n4)CC3)n(Cc3cnco3)c2c1` [Compound 145B, 2-[(4-{6-[(4-chloro-2-fluorobenzyl)oxy]pyridin-2-yl}piperidin-1-yl)methyl]-1-(1,3-oxazol-5-ylmethyl)-1H-benzimidazole-6-carboxylic acid], on human GLP-1R [1], the EC50 came to 120 nM and the Emax was 76%. At human GLP-1R [2], this molecule yielded an EC50 of 2200 nM and an Emax of 83%.
Take `O=C(O)c1ccc2nc(CN3CCN(c4cccc(OCc5ccc(Cl)cc5F)n4)CC3)n(Cc3ncco3)c2c1` [Compound 151B, 2-[(4-{6-[(4-chloro-2-fluorobenzyl)oxy]pyridin-2-yl}piperazin-1-yl)methyl]-1-(1,3-oxazol-2-ylmethyl)-1H-benzimidazole-6-carboxylic acid]: the EC50 at human GLP-1R [1] is 22 nM; at human GLP-1R [2], 280 nM. In addition, the Emax at human GLP-1R [1] stood at 87%.
For the molecule `O=C(O)c1ccc2nc(CN3CCC(c4cccc(OCc5ccc(Cl)cc5F)n4)CC3)n(C[C@@H]3CCO3)c2c1` [Compound 107B, 2-[(4-{6-[(4-chloro-2-fluorobenzyl)oxy]pyridin-2-yl}piperidin-1-yl)methyl]-1-[(2S)-oxetan-2-ylmethyl]-1H-benzimidazole-6-carboxylic acid], on human GLP-1R [1], the EC50 turned out to be 81 nM and the Emax was found to be 77%. On human GLP-1R [2], this molecule gave an EC50 of 910 nM and an Emax of 94%.
`CC1(Cn2c(CN3CCC(c4cccc(OCc5ccc(Cl)cc5F)n4)CC3)nc3ccc(C(=O)O)cc32)CCOC1` (centres unmarked) [Compound 289B, 2-[(4-{6-[(4-chloro-2-fluorobenzyl)oxy]pyridin-2-yl}piperidin-1-yl)methyl]-1-[(3-methyltetrahydrofuran-3-yl)methyl]-1H-benzimidazole-6-carboxylic acid]: the figures for the EC50 on human GLP-1R [1] and at human GLP-1R [2] were 36 nM and 1100 nM, respectively. Besides, the Emax on human GLP-1R [1] was 73%; at human GLP-1R [2] it was 79%.
Turning to `Cn1cncc1Cn1c(CN2CCC(c3cccc(OCc4ccc(Cl)cc4F)n3)CC2)nc2ccc(C(=O)O)cc21` [Compound 143B, 2-[(4-{6-[(4-chloro-2-fluorobenzyl)oxy]pyridin-2-yl}piperidin-1-yl)methyl]-1-[(1-methyl-1H-imidazol-5-yl)methyl]-1H-benzimidazole-6-carboxylic acid], on human GLP-1R [1], a half-maximal effect (EC50) was put at 140 nM and the Emax stood at 72%. In addition, at human GLP-1R [2], the EC50 was 1600 nM and the Emax is 46%.
On to `O=C(O)c1ccc2nc(CN3CCC(c4cccc(OCc5ccc(Cl)cc5F)n4)CC3)n(CCN3CCCC3=O)c2c1` [Compound 239B, 2-[(4-{6-[(4-chloro-2-fluorobenzyl)oxy]pyridin-2-yl}piperidin-1-yl)methyl]-1-[2-(2-oxopyrrolidin-1-yl)ethyl]-1H-benzimidazole-6-carboxylic acid], for which the results for the EC50 on human GLP-1R [1] and on human GLP-1R [2] were 1.2 nM and 24 nM, respectively. Further, the Emax was 84% on human GLP-1R [1] and 98% on human GLP-1R [2].
Regarding `CCn1cncc1Cn1c(CN2CCC(c3cccc(OCc4ccc(C#N)cc4F)n3)CC2)nc2ccc(C(=O)O)cc21` [Compound 162B, 2-[(4-{6-[(4-cyano-2-fluorobenzyl)oxy]pyridin-2-yl}piperidin-1-yl)methyl]-1-[(1-ethyl-1H-imidazol-5-yl)methyl]-1H-benzimidazole-6-carboxylic acid], at human GLP-1R [1], the midpoint of the response, the EC50, lay at 0.34 nM and the Emax is 78%. Moreover, at human GLP-1R [2], the EC50 was 7.4 nM and the Emax amounted to 94%.
On the same counts, the results for `COCCn1c(CN2CC[C@H](c3cccc(OCc4ccc(Cl)cc4F)n3)[C@@H](O)C2)nc2ccc(C(=O)O)cc21` (racemic) [Compound 190B, rac-2-{[(3S,4S)-4-{6-[(4-chloro-2-fluorobenzyl)oxy]pyridin-2-yl}-3-hydroxypiperidin-1-yl]methyl}-1-(2-methoxyethyl)-1H-benzimidazole-6-carboxylic acid] are 2.8 nM, 82%, 68 nM and 81%.
`N#Cc1ccc(COc2cccc(N3CCN(Cc4nc5ccc(C(=O)O)cc5n4Cc4cnco4)CC3)n2)c(F)c1` [Compound 142B, 2-[(4-{6-[(4-cyano-2-fluorobenzyl)oxy]pyridin-2-yl}piperazin-1-yl)methyl]-1-(1,3-oxazol-5-ylmethyl)-1H-benzimidazole-6-carboxylic acid]: on human GLP-1R [1], a half-maximal response (EC50) required 9 nM and the Emax was determined as 82%. On human GLP-1R [2], this molecule came in with a half-maximal effective concentration (EC50) of 170 nM and an Emax of 85%.
Turning to `CC1CN(c2cccc(OCc3ccc(C#N)cc3F)n2)CCN1Cc1nc2ccc(C(=O)O)cc2n1Cc1cnco1` (stereo in doubt) [Compound 242B, 2-{[(2S)-4-{6-[(4-cyano-2-fluorobenzyl)oxy]pyridin-2-yl}-2-methylpiperazin-1-yl]methyl}-1-(1,3-oxazol-5-ylmethyl)-1H-benzimidazole-6-carboxylic acid], at human GLP-1R [1], a half-maximal response (EC50) required 0.52 nM and the Emax is 70%. At human GLP-1R [2], this molecule yielded an EC50 of 8.5 nM and an Emax of 78%.
For `C[C@H]1CN(c2cccc(OCc3ccc(C#N)cc3F)n2)CCN1Cc1nc2ccc(C(=O)O)nc2n1C[C@@H]1CCO1` [Compound 137B, 2-{[(2S)-4-{6-[(4-cyano-2-fluorobenzyl)oxy]pyridin-2-yl}-2-methylpiperazin-1-yl]methyl}-3-[(2S)-oxetan-2-ylmethyl]-3H-imidazo[4,5-b]pyridine-5-carboxylic acid], on human GLP-1R [1], the EC50 is 90 nM and the Emax was determined as 76%. On human GLP-1R [2], this molecule gave an EC50 of 1800 nM and an Emax of 89%.
Take `Cn1c(CN2CCC(c3cccc(OCc4ccccc4F)n3)CC2)nc2ccc(C(=O)O)cc21` [Compound 226B, 2-[(4-{6-[(2-fluorobenzyl)oxy]pyridin-2-yl}piperidin-1-yl)methyl]-1-methyl-1H-benzimidazole-6-carboxylic acid]: the EC50 on human GLP-1R [1] turned out to be 2.7 nM; at human GLP-1R [2], 29 nM. Also, the results for the Emax at human GLP-1R [1] and at human GLP-1R [2] were 73% and 74%, respectively.
On to `Cn1c(CN2CCC(c3cccc(OCc4ccccc4)n3)CC2)nc2ccc(C(=O)O)cc21` [Compound 221B, 2-((4-(6-(Benzyloxy)pyridin-2-yl)piperidin-1-yl)methyl)-1-methyl-1H-benzo[d]imidazole-6-carboxylic acid], for which the EC50 is 3.4 nM at human GLP-1R [1] and 23 nM at human GLP-1R [2]. Moreover, the Emax at human GLP-1R [1] was 86%; on human GLP-1R [2], 110%.
As for `Cc1nc2nc(CN3CCC(c4cccc(OCc5ccc(Cl)cc5F)n4)CC3)n(C)c2cc1C(=O)O` [Compound 209B, 2-[(4-{6-[(4-chloro-2-fluorobenzyl)oxy]pyridin-2-yl}piperidin-1-yl)methyl]-1,5-dimethyl-1H-imidazo[4,5-b]pyridine-6-carboxylic acid], at human GLP-1R [1], the EC50 came out at 7 nM and the Emax was found to be 59%. In addition, at human GLP-1R [2], the EC50 stood at 190 nM and the Emax came to 80%.
`COCCn1c(CN2CC[C@H](c3cccc(OCc4ccc(Cl)cc4F)n3)[C@@H](C)C2)nc2ccc(C(=O)O)cc21` (racemic) [Compound 193B, rac-2-{[(3S,4R)-4-{6-[(4-chloro-2-fluorobenzyl)oxy]pyridin-2-yl}-3-methylpiperidin-1-yl]methyl}-1-(2-methoxyethyl)-1H-benzimidazole-6-carboxylic acid] displayed an EC50 at human GLP-1R [1] of 0.3 nM. Also, at human GLP-1R [2], it took 4.1 nM to reach a half-maximal effect (EC50) and the Emax stood at 100%.
As to `COC1CCN(CCn2c(CN3CCC(c4cccc(OCc5ccc(Cl)cc5F)n4)CC3)nc3ccc(C(=O)O)cc32)CC1` [Compound 331B, 2-[(4-{6-[(4-chloro-2-fluorobenzyl)oxy]pyridin-2-yl}piperidin-1-yl)methyl]-1-[2-(4-methoxypiperidin-1-yl)ethyl]-1H-benzimidazole-6-carboxylic acid], on human GLP-1R [1], a half-maximal response (EC50) required 63 nM and the Emax came to 78%. At human GLP-1R [2], this molecule had an EC50 of 2000 nM and an Emax of 82%.
Regarding `O=C(O)c1ccc2nc(CN3CCC(c4cccc(OCc5ccc(Cl)cc5F)n4)CC3)n(CCC(F)(F)F)c2c1` [Compound 346B, 2-[(4-{6-[(4-chloro-2-fluorobenzyl)oxy]pyridin-2-yl}piperidin-1-yl)methyl]-1-(3,3,3-trifluoropropyl)-1H-benzimidazole-6-carboxylic acid], on human GLP-1R [1], the midpoint of the response, the EC50, lay at 21 nM and the Emax was 79%. At human GLP-1R [2], a half-maximal response (EC50) required 540 nM.
With `O=C(O)c1ccc2nc(CN3CCC(c4cccc(OCc5ccc(Cl)cc5F)n4)CC3)n(Cc3ccc(Cl)cn3)c2c1` [Compound 277B, 2-[(4-{6-[(4-chloro-2-fluorobenzyl)oxy]pyridin-2-yl}piperidin-1-yl)methyl]-1-[(5-chloropyridin-2-yl)methyl]-1H-benzimidazole-6-carboxylic acid], the EC50 on human GLP-1R [1] was determined as 8.1 nM; at human GLP-1R [2], 230 nM. For the same molecule, the Emax on human GLP-1R [1] worked out at 64%; on human GLP-1R [2], 77%.
On the same counts, the results for `Cn1c(CN2CCC(c3cccc(OCc4cc(F)ccc4F)n3)CC2)nc2ccc(C(=O)O)cc21` [Compound 233B, 2-[(4-{6-[(2,5-difluorobenzyl)oxy]pyridin-2-yl}piperidin-1-yl)methyl]-1-methyl-1H-benzimidazole-6-carboxylic acid] are 0.56 nM, 9.6 nM, 73% and 84%.
